The results in this text go back to article PMC11606603, “The membrane domains of mammalian adenylyl cyclases are lipid receptors” (eLife, 2024).

Molecules are shown by their SMILES. Values joined by “and” are separate entries in the source; they are usually repeats but may differ in a detail not shown here. Equal values may be shown once. “Also recorded” adds a separate entry of the source.

Holding throughout (type): biochemical
Experiment [1] deals with T1, mAC2 (Homo sapiens, UniProt Q08462).
T1 construct: Human mAC genes were from GenScript and fitted with a C-terminal FLAG-tag; FLAG (C); made in house; host or cells: HEK293, permanently transfected; membrane preparation
T1 sequence (Q08462 whole entry): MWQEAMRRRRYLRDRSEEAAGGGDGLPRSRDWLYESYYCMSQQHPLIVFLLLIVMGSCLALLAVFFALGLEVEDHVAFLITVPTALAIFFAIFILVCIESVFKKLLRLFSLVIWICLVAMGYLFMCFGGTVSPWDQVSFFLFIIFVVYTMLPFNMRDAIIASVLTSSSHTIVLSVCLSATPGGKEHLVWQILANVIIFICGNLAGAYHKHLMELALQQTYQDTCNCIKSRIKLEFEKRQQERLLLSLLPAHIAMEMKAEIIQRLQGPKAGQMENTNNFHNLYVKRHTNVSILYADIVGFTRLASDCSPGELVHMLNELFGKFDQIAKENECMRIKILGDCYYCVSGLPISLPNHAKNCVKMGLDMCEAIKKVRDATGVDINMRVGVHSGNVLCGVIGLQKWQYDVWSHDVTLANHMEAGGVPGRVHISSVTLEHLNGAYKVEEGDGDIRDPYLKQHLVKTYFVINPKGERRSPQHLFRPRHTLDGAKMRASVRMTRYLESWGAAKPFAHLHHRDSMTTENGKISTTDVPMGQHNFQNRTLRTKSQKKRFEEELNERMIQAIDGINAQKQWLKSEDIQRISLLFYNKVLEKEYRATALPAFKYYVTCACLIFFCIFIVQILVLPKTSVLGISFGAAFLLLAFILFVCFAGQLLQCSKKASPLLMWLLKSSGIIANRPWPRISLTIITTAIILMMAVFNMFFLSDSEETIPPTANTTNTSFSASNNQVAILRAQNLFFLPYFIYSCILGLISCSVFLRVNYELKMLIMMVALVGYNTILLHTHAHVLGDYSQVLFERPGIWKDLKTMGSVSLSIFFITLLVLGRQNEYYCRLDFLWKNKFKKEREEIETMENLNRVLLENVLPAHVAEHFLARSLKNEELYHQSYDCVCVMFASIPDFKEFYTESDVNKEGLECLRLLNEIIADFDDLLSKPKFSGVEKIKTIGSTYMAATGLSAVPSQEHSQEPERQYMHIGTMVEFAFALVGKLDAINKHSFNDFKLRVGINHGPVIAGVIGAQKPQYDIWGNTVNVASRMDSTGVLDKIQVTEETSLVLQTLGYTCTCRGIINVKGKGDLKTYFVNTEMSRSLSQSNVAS
T1 sequence (P63092 2-394 Q227L partner): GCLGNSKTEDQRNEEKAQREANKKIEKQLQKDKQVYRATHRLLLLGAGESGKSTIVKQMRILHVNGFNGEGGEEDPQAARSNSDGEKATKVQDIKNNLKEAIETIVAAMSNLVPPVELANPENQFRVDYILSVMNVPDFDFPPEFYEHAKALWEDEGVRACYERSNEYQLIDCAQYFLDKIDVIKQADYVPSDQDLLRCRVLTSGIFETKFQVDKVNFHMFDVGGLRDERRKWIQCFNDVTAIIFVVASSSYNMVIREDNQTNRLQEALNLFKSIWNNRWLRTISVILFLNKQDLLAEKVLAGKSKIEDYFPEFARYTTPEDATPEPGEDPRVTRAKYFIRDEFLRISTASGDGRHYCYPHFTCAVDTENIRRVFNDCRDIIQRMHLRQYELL
As to the kind of experiment: AC assay, Gsα-stimulated mAC2 in membranes from transfected HEK293 cells. The note with it: Figure 5-figure supplement 1 left, 20 µM. The method in brief:
(§1)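 Adenylyl cyclase activity was measured in 100,000 × g membrane fractions prepared from HEK293 cells permanently transfected with C-terminally FLAG-tagged human AC isoforms. Assays contained 1 mM ATP and 2 mM MgCl2 with an ATP-regenerating system at pH 7.5.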

Experiment [2] deals with T2, mAC3 (Homo sapiens, UniProt O60266).
T2 construct: Human mAC genes were from GenScript and fitted with a C-terminal FLAG-tag; FLAG (C); made in house; host or cells: HEK293, permanently transfected; membrane preparation
The experiment in a line: AC assay, Gsα-stimulated mAC3 in membranes from transfected HEK293 cells. The conditions noted are these: for mAC3 activity [%] (100% = 300nM Gsα stimulation): individual experiments; for activity [%] (100% = 300nM Gsα stimulation): mAC3. The method in brief: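 EC50 and IC50 values come from cAMP production, read with a Cisbio cAMP kit and converted via a standard curve. Assay mix held 1 mM ATP, 2 mM MgCl2, 3 mM creatine phosphate and 60 μg/ml creatine kinase in 50 mM MOPS pH 7.5, using transfected HEK293 membranes.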

Experiment [3] has as its target T3, mAC4 (Homo sapiens, UniProt Q8NFM4).
T3 construct: Human mAC genes were from GenScript and fitted with a C-terminal FLAG-tag; FLAG (C); made in house; host or cells: HEK293, permanently transfected; membrane preparation
T3 sequence (Q8NFM4 1-1077): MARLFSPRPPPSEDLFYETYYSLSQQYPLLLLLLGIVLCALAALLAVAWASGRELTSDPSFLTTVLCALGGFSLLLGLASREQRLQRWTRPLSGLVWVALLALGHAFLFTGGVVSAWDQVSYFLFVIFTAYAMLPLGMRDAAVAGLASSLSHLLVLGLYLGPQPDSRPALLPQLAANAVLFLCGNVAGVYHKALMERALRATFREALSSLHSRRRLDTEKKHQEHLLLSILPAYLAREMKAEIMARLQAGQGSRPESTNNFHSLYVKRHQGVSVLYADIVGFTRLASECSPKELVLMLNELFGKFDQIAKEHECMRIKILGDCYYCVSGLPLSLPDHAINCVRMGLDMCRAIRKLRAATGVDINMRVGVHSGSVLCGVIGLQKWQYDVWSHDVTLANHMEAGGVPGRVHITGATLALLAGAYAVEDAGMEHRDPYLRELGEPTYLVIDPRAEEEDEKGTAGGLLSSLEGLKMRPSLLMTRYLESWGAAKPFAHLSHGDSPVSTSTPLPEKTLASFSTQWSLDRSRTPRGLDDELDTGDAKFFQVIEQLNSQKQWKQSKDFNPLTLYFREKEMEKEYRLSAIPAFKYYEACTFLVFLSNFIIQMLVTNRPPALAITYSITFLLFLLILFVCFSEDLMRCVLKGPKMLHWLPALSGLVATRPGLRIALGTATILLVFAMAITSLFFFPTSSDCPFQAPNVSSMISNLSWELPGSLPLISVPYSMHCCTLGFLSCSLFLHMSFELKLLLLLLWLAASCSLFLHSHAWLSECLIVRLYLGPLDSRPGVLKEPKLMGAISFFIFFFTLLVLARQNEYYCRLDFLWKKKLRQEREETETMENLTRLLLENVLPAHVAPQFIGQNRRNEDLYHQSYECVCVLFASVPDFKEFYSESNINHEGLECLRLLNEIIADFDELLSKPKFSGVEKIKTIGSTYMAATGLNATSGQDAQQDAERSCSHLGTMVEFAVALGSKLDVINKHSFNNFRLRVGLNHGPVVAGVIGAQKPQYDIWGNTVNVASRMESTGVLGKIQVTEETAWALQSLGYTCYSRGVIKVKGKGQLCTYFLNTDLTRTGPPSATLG
The experiment in a line: AC assay, Gsα-stimulated mAC4 in membranes from transfected HEK293 cells. The conditions noted are these: for activity [%] (100% = 300nM Gsα stimulation): mAC4. In short, it runs like this: as §1

Experiment [4] has as its target T4, mAC5 (Homo sapiens, UniProt O95622).
T4 construct: Human mAC genes were from GenScript and fitted with a C-terminal FLAG-tag; FLAG (C); made in house; host or cells: HEK293, permanently transfected; membrane preparation
The experiment in a line: AC assay, Gsα-stimulated mAC5 in membranes from transfected HEK293 cells. The conditions noted are these: for activity [%] (100% = 300nM Gsα stimulation): mAC5. In short, it runs like this: as §1

Experiment [5] has as its target T5, mAC6 (Homo sapiens, UniProt O43306).
T5 construct: Human mAC genes were from GenScript and fitted with a C-terminal FLAG-tag; FLAG (C); made in house; host or cells: HEK293, permanently transfected; membrane preparation
As to the kind of experiment: AC assay, Gsα-stimulated mAC6 in membranes from transfected HEK293 cells. The note with it: for activity [%] (100% = 300nM Gsα stimulation): mAC6. The method in brief: as §1

Setting [6] is: 100µM Anandamide concentration, Figure 9 D.
[7] abbreviates: attenuation of 300 nM Gsα-stimulated activity.

T5 sequence (O43306 whole entry): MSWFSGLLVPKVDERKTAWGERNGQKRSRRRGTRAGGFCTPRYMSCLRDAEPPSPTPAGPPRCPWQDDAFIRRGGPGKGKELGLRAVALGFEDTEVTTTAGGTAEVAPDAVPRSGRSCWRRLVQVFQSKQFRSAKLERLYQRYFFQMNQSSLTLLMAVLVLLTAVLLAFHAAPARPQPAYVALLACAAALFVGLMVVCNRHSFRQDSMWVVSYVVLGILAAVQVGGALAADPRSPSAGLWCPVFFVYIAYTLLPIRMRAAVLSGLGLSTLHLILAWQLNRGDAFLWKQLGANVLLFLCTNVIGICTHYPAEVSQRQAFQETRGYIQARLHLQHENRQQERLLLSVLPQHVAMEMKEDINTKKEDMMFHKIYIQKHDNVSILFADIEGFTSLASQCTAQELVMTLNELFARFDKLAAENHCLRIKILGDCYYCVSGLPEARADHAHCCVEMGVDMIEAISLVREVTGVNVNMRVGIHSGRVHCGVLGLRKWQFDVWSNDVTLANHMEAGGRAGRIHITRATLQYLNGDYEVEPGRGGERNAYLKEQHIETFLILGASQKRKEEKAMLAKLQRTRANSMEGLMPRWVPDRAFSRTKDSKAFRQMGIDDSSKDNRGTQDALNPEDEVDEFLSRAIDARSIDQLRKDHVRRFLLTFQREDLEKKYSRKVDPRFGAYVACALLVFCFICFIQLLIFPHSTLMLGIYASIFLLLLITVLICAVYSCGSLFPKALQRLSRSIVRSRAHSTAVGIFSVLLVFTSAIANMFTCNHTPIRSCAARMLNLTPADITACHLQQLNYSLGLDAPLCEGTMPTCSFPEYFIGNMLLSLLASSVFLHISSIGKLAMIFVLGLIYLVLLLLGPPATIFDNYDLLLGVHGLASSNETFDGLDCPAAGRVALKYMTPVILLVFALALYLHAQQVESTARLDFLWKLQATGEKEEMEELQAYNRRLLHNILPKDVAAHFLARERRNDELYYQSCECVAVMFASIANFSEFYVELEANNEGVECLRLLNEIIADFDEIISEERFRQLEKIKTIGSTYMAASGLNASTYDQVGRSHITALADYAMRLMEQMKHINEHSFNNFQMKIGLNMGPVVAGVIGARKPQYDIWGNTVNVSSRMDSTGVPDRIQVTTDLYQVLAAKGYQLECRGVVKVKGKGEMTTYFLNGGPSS
T4 sequence (O95622 whole entry): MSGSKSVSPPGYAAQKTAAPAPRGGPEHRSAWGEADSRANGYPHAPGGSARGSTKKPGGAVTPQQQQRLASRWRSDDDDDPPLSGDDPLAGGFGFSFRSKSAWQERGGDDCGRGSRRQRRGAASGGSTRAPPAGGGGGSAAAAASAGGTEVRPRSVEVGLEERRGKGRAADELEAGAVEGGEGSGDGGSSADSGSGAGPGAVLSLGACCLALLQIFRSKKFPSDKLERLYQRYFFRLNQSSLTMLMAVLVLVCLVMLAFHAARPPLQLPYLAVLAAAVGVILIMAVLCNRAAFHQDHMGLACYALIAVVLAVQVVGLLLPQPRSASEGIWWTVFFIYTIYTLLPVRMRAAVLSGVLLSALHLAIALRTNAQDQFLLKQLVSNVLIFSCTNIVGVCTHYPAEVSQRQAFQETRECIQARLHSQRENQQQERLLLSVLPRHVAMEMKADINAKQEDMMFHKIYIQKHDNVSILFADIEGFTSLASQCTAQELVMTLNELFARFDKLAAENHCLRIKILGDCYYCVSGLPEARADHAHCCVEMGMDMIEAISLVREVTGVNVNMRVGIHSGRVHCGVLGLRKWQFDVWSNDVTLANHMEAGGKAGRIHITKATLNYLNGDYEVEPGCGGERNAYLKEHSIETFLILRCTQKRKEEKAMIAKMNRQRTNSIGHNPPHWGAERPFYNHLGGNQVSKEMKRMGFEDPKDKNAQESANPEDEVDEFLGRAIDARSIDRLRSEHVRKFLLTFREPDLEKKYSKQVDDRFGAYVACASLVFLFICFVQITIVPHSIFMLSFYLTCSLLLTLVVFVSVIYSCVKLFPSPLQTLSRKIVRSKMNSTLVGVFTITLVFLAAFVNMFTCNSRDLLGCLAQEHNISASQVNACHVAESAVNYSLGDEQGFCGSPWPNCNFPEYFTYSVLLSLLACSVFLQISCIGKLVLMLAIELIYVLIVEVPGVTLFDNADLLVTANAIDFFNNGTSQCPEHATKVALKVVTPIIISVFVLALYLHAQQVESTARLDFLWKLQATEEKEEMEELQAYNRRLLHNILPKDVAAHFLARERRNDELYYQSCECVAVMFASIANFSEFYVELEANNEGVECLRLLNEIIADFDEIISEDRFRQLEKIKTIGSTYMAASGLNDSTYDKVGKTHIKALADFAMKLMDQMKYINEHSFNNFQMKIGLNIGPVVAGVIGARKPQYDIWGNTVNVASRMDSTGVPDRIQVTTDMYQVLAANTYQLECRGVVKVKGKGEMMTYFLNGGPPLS

`CCCCCCCCCCCCCCCCCC(=O)O` [Stearic acid, Stearic (octadecanoic) acid]: the “mAC2 activity [%] (100% = 300nM Gsα stimulation); 20µM fatty acid concentration” value in experiment [1] was 100% and 101% and 84% and 89%. Moreover, the “Effect of lipid on 300 nM Gsα-stimulated mAC3” value in experiment [2] (20 µM, in words) is “no significant effect; also recorded: inactive”. In addition, the “mAC3 activity [%] (100% = 300nM Gsα stimulation)” value in experiment [2] (fatty acid 0.5 µM) was 100%; in experiment [2] (fatty acid 1 µM) it was 121% and 48% and 49% and 110% and 79%; in experiment [2] (fatty acid 3 µM) it was 84% and 77% and 52% and 121% and 116%; in experiment [2] (fatty acid 6 µM), 91% and 103% (2×) and 32% and 75%; in experiment [2] (fatty acid 10 µM), 69% and 84% and 76% and 71% and 80% and 79%; in experiment [2] (fatty acid 20 µM), 115% and 83% and 68% and 70% and 65% and 160%. The “mAC4 activity [%] (100% = 300nM Gsα stimulation); 20µM fatty acid concentration” value in experiment [3] (20 µM fatty acid, 300 nM Gsα, single experiments) is 79% and 60% and 83%. The “mAC5 activity [%] (100% = 300nM Gsα stimulation)” value (shortened to “mAC5 activity [%]”) in experiment [4] (20µM fatty acid concentration) was 73% and 93% and 77%; in experiment [4] (fatty acid 0.5 µM, individual experiments), 100%; in experiment [4] (fatty acid 1 µM, individual experiments), 134% and 72%; in experiment [4] (fatty acid 3 µM, individual experiments), 73% and 80% and 162%; in experiment [4] (fatty acid 6 µM, individual experiments), 124% and 75% and 108% and 125%; in experiment [4] (fatty acid 10 µM, individual experiments) it was 73% and 93% and 77%. Also, the “mAC5 activity [%]” value in experiment [4] (fatty acid 20 µM, individual experiments) is 80% and 91% and 83%. Further, the “mAC6 activity [%] (100% = 300nM Gsα stimulation)” value in experiment [5] (20µM fatty acid concentration) was 88% and 61% and 94% and 93%.
As usually defined, the IC50 is the point on the concentration scale where inhibition reaches its midpoint. Low values mean greater potency in that assay, high ones weaker potency in that assay. For the compound `CCCCC/C=C\C/C=C\C/C=C\C/C=C\CCCC(=O)O` [Arachidonic acid, Arachidonic ((5Z,8Z,11Z,14Z)-eicosatetraenoic) acid], in experiment [1], the “mAC2 activity [%] (100% = 300nM Gsα stimulation); 20µM fatty acid concentration” value is 133% and 137% and 152% and 99% and 147%. In addition, in experiment [2] (fatty acid 20 µM), the “mAC3 activity [%] (100% = 300nM Gsα stimulation)” value was 115% and 168% and 182% and 127%. Besides, in experiment [3], the midpoint of inhibition, the IC50, lay at 36 µM. The “Effect of lipid on 300 nM Gsα-stimulated mAC4” value in experiment [3] (20 µM, in words) is “significantly attenuated”. The “activity [%] (100% = 300nM Gsα stimulation)” value in experiment [3] (1 µM, 300 nM Gsα, single experiments) is 68% and 108% and 85% and 103% and 89% and 87% and 67% and 75%; in experiment [3] (3 µM, 300 nM Gsα, single experiments) it was 72% and 95% and 69% and 73% and 97% and 106% and 108%; in experiment [3] (6 µM, 300 nM Gsα, single experiments) it was 70% and 85% and 107% and 83% and 91% and 126%; in experiment [3] (30 µM, 300 nM Gsα, single experiments), 84% and 74% and 88%; in experiment [3] (100 µM, 300 nM Gsα, single experiments) it was 22% and 14% and 13%. Besides, the “mAC5 activity [%]” value in experiment [4] (20µM fatty acid concentration) is 97% and 73% and 120% and 131% and 110%.
With `CCCCC/C=C\C/C=C\C/C=C\C/C=C\CCCC(=O)NCCO` [Anandamide, arachidonoylethanolamide], the “activity [%] (100% = 300nM Gsα stimulation)” value in experiment [2] (setting [6]) is 165%; in experiment [2] (Anandamide 0.1 µM), 100%; in experiment [2] (Anandamide 1 µM), 87% and 101% and 117% and 100% and 94% and 127% and 77%; in experiment [2] (Anandamide 10 µM), 105% and 80% and 130% and 120% and 88% and 111% and 112% and 137%; in experiment [2] (Anandamide 30 µM), 96% and 65% and 85% and 72% and 94% and 68% and 100% and 101%; in experiment [3] (Anandamide 0.1 µM), 100%. The “activity [%] (100% = 300nM Gsα stimulation)” value is 86% and 113% and 96% and 121% and 82% in experiment [3] (Anandamide 3 µM); 107% in experiment [3] (Anandamide 30 µM); 55% and 58% and 70% and 40% and 56% and 45% and 65% and 60% in experiment [4] (setting [6]); 100% in experiment [4] (Anandamide 0.1 µM); 96% and 115% and 93% and 114% and 127% in experiment [4] (Anandamide 0.5 µM); 122% and 77% in experiment [4] (Anandamide 3 µM). The “activity [%] (100% = 300nM Gsα stimulation)” value was 101% in experiment [4] (Anandamide 8 µM); 99% in experiment [4] (Anandamide 10 µM); 78% and 77% and 119% in experiment [4] (Anandamide 35 µM); 58% and 74% in experiment [4] (Anandamide 40 µM); 47% in experiment [4] (Anandamide 80 µM); 100% in experiment [5] (Anandamide 0.1 µM). Further, the “activity [%] (100% = 300nM Gsα stimulation)” value is 100% and 94% in experiment [5] (Anandamide 0.5 µM); 89% in experiment [5] (Anandamide 1 µM); 89% in experiment [5] (Anandamide 20 µM); 60% and 59% and 57% and 63% and 40% in experiment [5] (Anandamide 30 µM); 73% in experiment [5] (Anandamide 35 µM); 26% in experiment [5] (Anandamide 100 µM). Moreover, in experiment [3] (concentration–response, higher concentrations, in words), the “Effect of anandamide on Gsα-stimulated mAC4” value is listed as “distinctly not”. Also, the concentration for half-maximal inhibition (IC50) in experiment [4] (setting [7]) was 42 µM; in experiment [5] (setting [7]), 23 µM and 22 µM.
